Measurements taken from patent publication EP0583821A1, “Atriopeptins, guanylate cyclase activators, and phosphodiesterase inhibitors as treatment for glaucoma, hydrocephalus and cerebral edema (cranial fluid volume dysfunction)” (THE GENERAL HOSPITAL CORPORATION, priority 1987, dated 1988).

Target: T1, guanylate cyclase (Oryctolagus cuniculus, UniProt G1TXB5)
T1 sequence (G1TXB5 28-1056): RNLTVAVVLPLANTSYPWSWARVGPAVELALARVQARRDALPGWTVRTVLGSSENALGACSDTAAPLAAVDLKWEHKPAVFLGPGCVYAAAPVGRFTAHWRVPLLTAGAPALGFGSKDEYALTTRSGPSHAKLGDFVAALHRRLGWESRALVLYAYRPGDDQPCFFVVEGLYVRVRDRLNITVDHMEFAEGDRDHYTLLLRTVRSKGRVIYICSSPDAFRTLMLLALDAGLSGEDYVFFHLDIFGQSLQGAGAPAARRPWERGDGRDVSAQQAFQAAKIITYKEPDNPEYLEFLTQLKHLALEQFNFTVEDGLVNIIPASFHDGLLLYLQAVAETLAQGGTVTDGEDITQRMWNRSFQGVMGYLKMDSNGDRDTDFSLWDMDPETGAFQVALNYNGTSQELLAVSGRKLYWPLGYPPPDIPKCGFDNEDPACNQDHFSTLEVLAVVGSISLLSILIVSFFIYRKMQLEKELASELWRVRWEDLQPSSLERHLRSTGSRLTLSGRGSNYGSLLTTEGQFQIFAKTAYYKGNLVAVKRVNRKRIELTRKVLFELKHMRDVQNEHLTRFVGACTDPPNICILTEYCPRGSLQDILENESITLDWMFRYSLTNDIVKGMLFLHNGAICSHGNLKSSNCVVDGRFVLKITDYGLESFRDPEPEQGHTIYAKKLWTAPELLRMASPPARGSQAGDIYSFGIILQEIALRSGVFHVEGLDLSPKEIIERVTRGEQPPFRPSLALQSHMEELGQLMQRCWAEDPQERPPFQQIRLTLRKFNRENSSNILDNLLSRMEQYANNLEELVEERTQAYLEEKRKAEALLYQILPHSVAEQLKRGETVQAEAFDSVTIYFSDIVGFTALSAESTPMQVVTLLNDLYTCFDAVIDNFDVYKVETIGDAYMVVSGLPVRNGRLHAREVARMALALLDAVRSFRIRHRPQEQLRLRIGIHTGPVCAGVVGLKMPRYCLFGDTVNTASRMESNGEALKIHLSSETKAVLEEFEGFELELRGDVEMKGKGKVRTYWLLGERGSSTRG
Assay: rANP activation of guanylate cyclase in membrane fractions of whole choroid plexus
Format: biochemical, rabbit
Design: tissues were homogenized (10 mg wet weight per milliliter); from tissue; host or cells: rabbit cerebral microvessels, choroid plexus, kidney, ciliary process, pia-arachnoid, cerebellum; 100,000 g P1 pellet
Description: The effect of rANP on membrane-bound guanylate cyclase and adenylate cyclase activity in various brain-barrier tissues and tissue fractions from rabbit was compared with its activity in cerebrum and cerebellum. Guanylate cyclase was measured as the rate of cyclic GMP formation by modifications of the technique of Waldman et al., supra, incorporated herein by reference. Briefly, tissues were homogenized (10 mg wet weight per milliliter) in 50 mM tris-HCl, pH 8.0, 1 mM EDTA, 1 mM dithiothreitol, and 250 mM sucrose and centrifuged at 100,000g to obtain a P1 pellet. Reaction tubes contained (in 0.3 ml), 50 mM tris, pH 7.6, 6 mM MnCl₂, 0.5 mM 3-isobutyl, 1-methylxanthine (IBMX), 10 mM theophylline, 3 mM GTP, hormone (in 0.03 ml containing 2.5 mM ascorbic acid and 0.1% bovine serum albumin), and 0.06 ml of P1 fraction (40 to 60 ug of protein). The reaction (4 minutes at 30°C) was started by addition of GTP and terminated by addition of 0.3 ml of 150 mM sodium acetate (pH 4.0) and boiling for 3 minutes. Cyclic GMP formed was subsequently measured by radioimmunoassay as described in example 6, infra. Under these conditions, guanylate cyclase activity was linear with time and tissue concentration. Adenylate cyclase activity in P1 fractions was measured according to the method described by Nathanson, et al., Science; 204:843 (1979); Mol. Pharmacol. 18:199 (1980), see Figure 1C . […] Neurosci. Abstr., 10, 899 (1984); Nathanson, et al., Soc. Neurosci. Abstr., 12, 1257 (1986), incorporated herein by reference, but with a lower concentration (0.025%) of trypsin and a rotating tissue tumbler which allowed cleaner fractionation of epithelial cells from erythrocytes and vascular components.
Adenylate cyclase activity could be stimulated by isoproterenol through β-adrenergic receptors known to be present in this tissue. Values shown are the mean ± range for duplicate enzyme determinations, each assayed for cyclic AMP or cyclic GMP in triplicate. […]

| Substance | Vmax for stimulation of basal activity (choroid plexus, SEM, N = 5) | Ka for activation of the enzyme (whole choroid plexus, five separate experiments, SEM, 4 min) | stimulation of guanylate cyclase (choroid plexus) |
| --- | --- | --- | --- |
| Ser-Leu-Arg-Arg-atriopeptin III (APIII) [rANP 1-28] | 58% ± 16% | 9.8 ± 5.1 nM | – |
| rANP 13-28 (DRIGAQSGLGCNSFRY; Atrial natriuretic peptide; UniProt P01161 135-150, looked up, fragment) | – | – | almost no stimulation |
